Laboratory results published in US11173151B2, “Substituted triazole derivatives and uses thereof” (BAYER AKTIENGESELLSCHAFT, priority 2017, dated 2021).

Assays:
human V2 receptor = biological target: T1, human V2 receptor (Homo sapiens, UniProt P30518); assay: Cellular in vitro assay for determining vasopressin receptor activity, V2 receptor cell line (CHO, CRE-luciferase); assay type: cell-based; details: CHO cell line transfected with human V2 receptor; [Arg8]-vasopressin at EC50 concentration, 3 hours; read-out: IC50 hV2
T1 construct: expressed in transfected cells; host or cells: CHO K1 (ATCC) expressing firefly luciferase under a CRE-responsive promoter
Protocol: (§1) B-1. Cellular In Vitro Assay for Determining Vasopressin Receptor Activity
(§2) The identification of agonists and antagonists of the V1a and V2 vasopressin receptors from humans, rats and dogs as well as the quantification of the activity of the compounds of the invention is carried out using recombinant cell lines. These cell lines originally derive from a hamster's ovary epithelial cell (Chinese Hamster Ovary, CHO K1, ATCC: American Type Culture Collection, Manassas, Va. 20108, USA). The test cell lines constitutively express the human, rat or dog V1a or V2 receptors. In case of the Gαq-coupled V1a receptors, cells are also stably transfected with a modified form of the calcium-sensitive photoproteins aequorin (human and rat V1a) or obelin (dog V1a), which, after reconstitution with the cofactor coelenterazine, emit light when there are increases in free calcium concentrations [Rizzuto R, Simpson A W, Brini M, Pozzan T, Nature 358, 325-327 (1992); Illarionov B A, Bondar V S, Illarionova V A, Vysotski E S, Gene 153 (2), 273-274 (1995)]. The resulting vasopressin receptor cells react to stimulation of the recombinantly expressed V1a receptors by intracellular release of calcium ions, which can be quantified by the resulting photoprotein luminescence. The Gs-coupled V2 receptors are stably transfected into cell lines expressing the gene for firefly luciferase under control of a CRE-responsible promoter. Activation of V2 receptors induces the activation of the CRE-responsive promoter via cAMP increase, thereby inducing the expression of firefly luciferase. The light emitted by photoproteins of V1a cell lines as well as the light emitted by firefly luciferase of V2 cell lines corresponds to the activation or inhibition of the respective vasopressin receptor. The bioluminescence of the cell lines is detected using a suitable luminometer [Milligan G, Marshall F, Rees S, Trends in Pharmacological Sciences 17, 235-237 (1996)].
Vasopressin V2 Receptor Cell Lines:
On the day before the assay, the cells are plated out in culture medium (DMEM/F12, 2% FCS, 2 mM glutamine, 10 mM HEPES) in 384-well microtiter plates and kept in a cell incubator (96% humidity, 5% v/v CO2, 37° C.). On the day of the assay, test compounds in various concentrations and the agonist [Arg^8]-vasopressin at EC50 concentration are added together to the wells, and plates are incubated for 3 hours in a cell incubator. Upon addition of the cell lysis reagent Triton™ and the substrate luciferin, luminescence of firefly luciferase is measured in a luminometer.
(§3) Table 1A below lists individual IC50 values for the compounds of the invention (including racemic mixtures as well as separated enantiomers) that were obtained from cell lines transfected with the human V1a or V2 receptor: […]

human V1a receptor = biological target: T2, human V1a receptor (Homo sapiens, UniProt P37288); assay: Cellular in vitro assay for determining vasopressin receptor activity, V1a receptor cell line (CHO, aequorin luminescence); assay type: cell-based; details: for IC50: CHO cell line transfected with human V1a receptor, [Arg]-vasopressin at EC50 concentration, read-out: IC50 hV1a; for ratio IC50 hV2/hV1a: selectivity ratio IC50 hV2 / IC50 hV1a
T2 construct: expressed in transfected cells; host or cells: CHO K1 (ATCC), also stably transfected with a modified aequorin
Protocol: as §1, §2
Vasopressin V1a Receptor Cell Lines:
On the day before the assay, the cells are plated out in culture medium (DMEM/F12, 2% FCS, 2 mM glutamine, 10 mM HEPES, 5 μg/ml coelenterazine) in 384-well microtiter plates and kept in a cell incubator (96% humidity, 5% v/v CO2, 37° C.). On the day of the assay, test compounds in various concentrations are placed for 10 minutes in the wells of the microtiter plate before the agonist [Arg]-vasopressin at EC50 concentration is added. The resulting light signal is measured immediately in a luminometer.
as §3

T2 sequence (P37288 whole entry): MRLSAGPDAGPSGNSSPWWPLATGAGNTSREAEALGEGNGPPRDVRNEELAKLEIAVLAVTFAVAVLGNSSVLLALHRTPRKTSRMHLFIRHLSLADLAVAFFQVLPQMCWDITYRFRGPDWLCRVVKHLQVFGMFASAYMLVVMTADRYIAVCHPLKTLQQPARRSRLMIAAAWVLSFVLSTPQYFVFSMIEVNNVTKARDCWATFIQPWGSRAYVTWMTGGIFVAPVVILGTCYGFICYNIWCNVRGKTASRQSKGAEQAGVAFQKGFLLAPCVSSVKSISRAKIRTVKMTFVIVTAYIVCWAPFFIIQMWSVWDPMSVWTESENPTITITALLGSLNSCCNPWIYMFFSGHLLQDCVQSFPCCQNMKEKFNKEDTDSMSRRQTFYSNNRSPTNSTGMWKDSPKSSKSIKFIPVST
T1 sequence (P30518 whole entry): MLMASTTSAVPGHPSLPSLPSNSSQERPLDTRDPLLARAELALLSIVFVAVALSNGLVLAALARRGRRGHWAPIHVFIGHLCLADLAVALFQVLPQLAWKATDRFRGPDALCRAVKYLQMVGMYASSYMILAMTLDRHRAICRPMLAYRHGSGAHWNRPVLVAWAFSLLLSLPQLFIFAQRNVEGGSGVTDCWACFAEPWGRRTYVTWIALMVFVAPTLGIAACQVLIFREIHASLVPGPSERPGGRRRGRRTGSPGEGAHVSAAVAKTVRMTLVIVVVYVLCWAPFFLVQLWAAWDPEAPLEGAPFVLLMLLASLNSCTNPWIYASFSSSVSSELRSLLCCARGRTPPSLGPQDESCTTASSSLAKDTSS

Row | Structure (SMILES) | IC50 (human V2 receptor) [nM] | IC50 (human V1a receptor) [nM] | ratio IC50 hV2/hV1a (human V1a receptor)
1 | CC1CCCCC1NC(=O)c1ccccc1-n1cnc(Cn2nc(-c3ccc(Cl)cc3)n(C[C@H](O)C(F)(F)F)c2=O)n1 (mixture of isomers) [Example 319, 2-[3-({3-(4-Chlorophenyl)-5-oxo-4-[(2S)-3,3,3-trifluoro-2-hydroxypropyl]-4,5-dihydro-1H-1,2,4-triazol-1-yl}methyl)-1H-1,2,4-triazol-1-yl]-N-(2-methylcyclohexyl)benzamide] | 325 | 3.55 | 91.5
2 | CC1CC(C)CN(C(=O)c2ccccc2-n2cnc(Cn3nc(-c4ccc(Cl)cc4)n(C[C@H](O)C(F)(F)F)c3=O)n2)C1 (mixture of isomers) [Example 326, 5-(4-Chlorophenyl)-2-[(1-{2-[(3,5-dimethylpiperidin-1-yl)carbonyl]phenyl}-1H-1,2,4-triazol-3-yl)methyl]-4-[(2S)-3,3,3-trifluoro-2-hydroxypropyl]-2,4-dihydro-3H-1,2,4-triazol-3-one] | 1500 | 8.3 | 180.7
3 | CC1CCC(C)N1C(=O)c1ccccc1-n1cnc(Cn2nc(-c3ccc(Cl)cc3)n(C[C@H](O)C(F)(F)F)c2=O)n1 (mixture of isomers) [Example 328, 5-(4-Chlorophenyl)-2-[(1-{2-[(2,5-dimethylpyrrolidin-1-yl)carbonyl]phenyl}-1H-1,2,4-triazol-3-yl)methyl]-4-[(2S)-3,3,3-trifluoro-2-hydroxypropyl]-2,4-dihydro-3H-1,2,4-triazol-3-one] | 2150 | 7.95 | 270.4
4 | CC1CCCC(C)N1C(=O)c1ccccc1-n1cnc(Cn2nc(-c3ccc(Cl)cc3)n(C[C@H](O)C(F)(F)F)c2=O)n1 (mixture of isomers) [Example 337, 5-(4-Chlorophenyl)-2-[(1-{2-[(2,6-dimethylpiperidin-1-yl)carbonyl]phenyl}-1H-1,2,4-triazol-3-yl)methyl]-4-[(2S)-3,3,3-trifluoro-2-hydroxypropyl]-2,4-dihydro-3H-1,2,4-triazol-3-one] | 1080 | 23.5 | 46.2
5 | CC(C)C(C)NC(=O)c1ccccc1-n1cnc(Cn2nc(-c3ccc(Cl)cc3)n(C[C@H](O)C(F)(F)F)c2=O)n1 (mixture of isomers) [Example 345, 2-[3-({3-(4-Chlorophenyl)-5-oxo-4-[(2S)-3,3,3-trifluoro-2-hydroxypropyl]-4,5-dihydro-1H-1,2,4-triazol-1-yl}methyl)-1H-1,2,4-triazol-1-yl]-N-[(2R)-3-methylbutan-2-yl]benzamide] | 119 | 3.2 | 37.2
6 | CC1CCCN(C(=O)c2ccccc2-n2cnc(Cn3nc(-c4ccc(Cl)cc4)n(C[C@H](O)C(F)(F)F)c3=O)n2)C1 (mixture of isomers) [Example 351, 5-(4-Chlorophenyl)-2-{[1-(2-{[3-methylpiperidin-1-yl]carbonyl}phenyl)-1H-1,2,4-triazol-3-yl]methyl}-4-[(2S)-3,3,3-trifluoro-2-hydroxypropyl]-2,4-dihydro-3H-1,2,4-triazol-3-one] | 950 | 2.7 | 351.9
7 | CC1CCCN1C(=O)c1ccccc1-n1cnc(Cn2nc(-c3ccc(Cl)cc3)n(C[C@H](O)C(F)(F)F)c2=O)n1 (mixture of isomers) [Example 355, 5-(4-Chlorophenyl)-2-{[1-(2-{[2-methylpyrrolidin-1-yl]carbonyl}phenyl)-1H-1,2,4-triazol-3-yl]methyl}-4-[(2S)-3,3,3-trifluoro-2-hydroxypropyl]-2,4-dihydro-3H-1,2,4-triazol-3-one] | 635 | 1.75 | 362.9
8 | O=C(NC1CC1F)c1ccccc1-n1cnc(Cn2nc(-c3ccc(Cl)cc3)n(C[C@H](O)C(F)(F)F)c2=O)n1 (mixture of isomers) [Example 364, 2-[3-({3-(4-Chlorophenyl)-5-oxo-4-[(2S)-3,3,3-trifluoro-2-hydroxypropyl]-4,5-dihydro-1H-1,2,4-triazol-1-yl}methyl)-1H-1,2,4-triazol-1-yl]-N-(2-fluorocyclopropyl)benzamide] | 155 | 0.47 | 329.8
9 | O=C(NCC(O)C(F)(F)F)c1cccc(Cl)c1-n1cnc(Cn2nc(-c3ccc(Cl)cc3)n(C[C@H](O)C(F)(F)F)c2=O)n1 (mixture of isomers) [Example 367, 3-Chloro-2-[3-({3-(4-chlorophenyl)-5-oxo-4-[(2S)-3,3,3-trifluoro-2-hydroxypropyl]-4,5-dihydro-1H-1,2,4-triazol-1-yl}methyl)-1H-1,2,4-triazol-1-yl]-N-[3,3,3-trifluoro-2-hydroxypropyl]benzamide] | 260 | 45 | 5.8
10 | O=C(NCC(O)C(F)(F)F)c1cccc(Cl)c1-n1cnc(Cn2nc(-c3ccc(Cl)cc3)n(C[C@@H](O)C(F)(F)F)c2=O)n1 (mixture of isomers) [Example 368, 3-Chloro-2-[3-({3-(4-chlorophenyl)-5-oxo-4-[(2R)-3,3,3-trifluoro-2-hydroxypropyl]-4,5-dihydro-1H-1,2,4-triazol-1-yl}methyl)-1H-1,2,4-triazol-1-yl]-N-[3,3,3-trifluoro-2-hydroxypropyl]benzamide] | 2100 | 350 | 6.0
11 | O=C(NC1CC1(F)F)c1cccc(Cl)c1-n1cnc(Cn2nc(-c3ccc(Cl)cc3)n(C[C@H](O)C(F)(F)F)c2=O)n1 (mixture of isomers) [Example 371, 3-Chloro-2-[3-({3-(4-chlorophenyl)-5-oxo-4-[(2S)-3,3,3-trifluoro-2-hydroxypropyl]-4,5-dihydro-1H-1,2,4-triazol-1-yl}methyl)-1H-1,2,4-triazol-1-yl]-N-[2,2-difluorocyclopropyl]benzamide] | 710 | 15 | 47.3
12 | CC1CN(C(=O)c2cccc(Cl)c2-n2cnc(Cn3nc(-c4ccc(Cl)cc4)n(C[C@H](O)C(F)(F)F)c3=O)n2)CCO1 (mixture of isomers) [Example 377, 2-{[1-(2-Chloro-6-{[2-methylmorpholin-4-yl]carbonyl}phenyl)-1H-1,2,4-triazol-3-yl]methyl}-5-(4-chlorophenyl)-4-[(2S)-3,3,3-trifluoro-2-hydroxypropyl]-2,4-dihydro-3H-1,2,4-triazol-3-one] | 8600 | 295 | 29.2
13 | NC(=O)C1CCCN1C(=O)c1cccc(Cl)c1-n1cnc(Cn2nc(-c3ccc(Cl)cc3)n(C[C@H](O)C(F)(F)F)c2=O)n1 (mixture of isomers) [Example 378, 1-{3-Chloro-2-[3-({3-(4-chlorophenyl)-5-oxo-4-[(2S)-3,3,3-trifluoro-2-hydroxypropyl]-4,5-dihydro-1H-1,2,4-triazol-1-yl}methyl)-1H-1,2,4-triazol-1-yl]benzoyl}-prolinamide] | 2050 | 120 | 17.1
14 | O=C(c1cccc(Cl)c1-n1cnc(Cn2nc(-c3ccc(Cl)cc3)n(C[C@H](O)C(F)(F)F)c2=O)n1)N1CCC(O)(C(F)(F)F)C1 (mixture of isomers) [Example 379, 2-{[1-(2-Chloro-6-{[hydroxy-3-(trifluoromethyl)pyrrolidin-1-yl]carbonyl}phenyl)-1H-1,2,4-triazol-3-yl]methyl}-5-(4-chlorophenyl)-4-[(2S)-3,3,3-trifluoro-2-hydroxypropyl]-2,4-dihydro-3H-1,2,4-triazol-3-one] | 845 | 70.5 | –
